Broadly, the Ki is the dissociation constant of the complex between target and ligand, obtained from inhibition or displacement.

The first assay has as its target T1, Carbonic anhydrase 4 (Bos taurus, UniProt Q95323).
T1 sequence (Q95323 whole entry): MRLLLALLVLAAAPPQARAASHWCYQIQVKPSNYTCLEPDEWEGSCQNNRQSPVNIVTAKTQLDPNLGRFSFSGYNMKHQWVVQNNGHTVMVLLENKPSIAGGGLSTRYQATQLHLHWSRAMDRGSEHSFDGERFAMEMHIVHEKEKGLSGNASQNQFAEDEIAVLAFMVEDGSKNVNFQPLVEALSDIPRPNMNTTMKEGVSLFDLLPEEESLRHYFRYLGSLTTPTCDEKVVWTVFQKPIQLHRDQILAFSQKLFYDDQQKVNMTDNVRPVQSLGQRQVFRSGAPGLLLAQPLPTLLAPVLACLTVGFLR
Description: Inhibitory activity against bovine carbonic anhydrase IV (CA4), isolated from bovine lung microsomes
The molecule `NCC(=O)NCC(=O)Nc1cccc(S(N)(=O)=O)c1` returned a Ki of 235 nM. Same read-out and setting: under `CNCC(=O)NS(=O)(=O)c1ccc(CO)cc1` stands 123 nM. Consider `CN(CC(=O)Nc1ccc2nc(S(N)(=O)=O)sc2c1)C(=N)N`, for which the Ki turned out to be 12 nM.

For `CN(CC(=O)Nc1ccc(S(=O)(=O)Nc2cccc(S(N)(=O)=O)c2)cc1)C(=N)N`, the affinity corresponds to a Ki of 57 nM. Molecule `NCC(=O)Nc1ccc(S(=O)(=O)Nc2ccc(S(N)(=O)=O)cc2)cc1` registered a Ki of 86 nM.

The molecule `CNCC(=O)Nc1c(S(N)(=O)=O)cc(S(N)(=O)=O)c(Cl)c1Cl` had a Ki of 55 nM. `NCC(=O)NS(=O)(=O)c1nc2ccc(OCCO)cc2s1` had a Ki of 23 nM. In turn, `CNCC(=O)Nc1ccc(S(N)(=O)=O)cc1I` came in with a Ki of 70 nM. `NCC(=O)Nc1ccc(S(N)(=O)=O)cc1Br` yielded a Ki of 73 nM. As to `CN(CC(=O)NCCc1ccc(S(N)(=O)=O)cc1)C(=N)N`, affinity was put at a Ki of 64 nM. Take `NCC(=O)NCC(=O)Nc1ccc(S(N)(=O)=O)cc1I`: the Ki is 71 nM.

`NCC(=O)Nc1ccccc1S(N)(=O)=O` came in with a Ki of 245 nM. As to `CN(CC(=O)Nc1ccc(S(N)(=O)=O)cc1Br)C(=N)N`, the Ki turned out to be 62 nM.

Molecule `NCC(=O)Nc1ccc2nc(S(N)(=O)=O)sc2c1` registered a Ki of 72 nM. On to `CNCC(=O)Nc1ccc(S(N)(=O)=O)cc1Cl`, for which the affinity, expressed as Ki, was 62 nM. `CN(CC(=O)Nc1ccc(S(N)(=O)=O)cc1Cl)C(=N)N` gave a Ki of 60 nM. Consider `NCC(=O)NCC(=O)Nc1nccc(Nc2ccc(S(N)(=O)=O)cc2)n1`, for which affinity was put at a Ki of 69 nM. The same measure, in the same setting: under `NCC(=O)Nc1ccc(S(N)(=O)=O)cc1F` stands 46 nM. Regarding `NCC(=O)Nc1ccc(S(N)(=O)=O)cc1`, the affinity, expressed as Ki, was 175 nM. Turning to `CN(CC(=O)NNc1ccc(S(N)(=O)=O)cc1)C(=N)N`, the Ki turned out to be 245 nM. Molecule `CNCC(=O)NCCc1ccc(S(N)(=O)=O)cc1` came in with a Ki of 70 nM. Take `CN(CC(=O)NS(=O)(=O)c1nc2ccc(O)cc2s1)C(=N)N`: the Ki is 15 nM. On the same count and under the same terms, under `NCC(=O)NCC(=O)Nc1ccccc1S(N)(=O)=O` stands 240 nM; under `CNCC(=O)NNc1ccc(S(N)(=O)=O)cc1`, 280 nM; under `CNCC(=O)NS(=O)(=O)c1nc2ccc(O)cc2s1`, 30 nM.

`CN(CC(=O)NS(=O)(=O)c1nc2ccc(OCCO)cc2s1)C(=N)N` showed a Ki of 11 nM. Take `Cn1nc(S(N)(=O)=O)s/c1=N/C(=O)CNC(=O)CN`: the affinity corresponds to a Ki of 44 nM.

Take `NCC(=O)Nc1cc(Cl)c(S(N)(=O)=O)cc1S(N)(=O)=O`: the Ki turned out to be 60 nM. In turn, `NCC(=O)NCC(=O)Nc1ccc(S(N)(=O)=O)cc1` showed a Ki of 154 nM. As for `NCC(=O)NCC(=O)Nc1ccc(S(=O)(=O)Nc2cccc(S(N)(=O)=O)c2)cc1`, the Ki is 60 nM. The molecule `CN(CC(=O)NS(=O)(=O)c1ccc(CCO)cc1)C(=N)N` returned a Ki of 86 nM. The same measure, in the same setting: next, `NCC(=O)NCC(=O)NS(=O)(=O)c1ccc(CCO)cc1`: 150 nM; `Cn1nc(S(N)(=O)=O)s/c1=N\C(=O)CN`: 70 nM.

In turn, `CN(CC(=O)Nc1c(S(N)(=O)=O)cc(S(N)(=O)=O)c(Cl)c1Cl)C(=N)N` returned a Ki of 51 nM.

For `CNCC(=O)NS(=O)(=O)c1nc2ccc(OCCO)cc2s1`, affinity was put at a Ki of 15 nM. With `CN(CC(=O)Nc1ccccc1S(N)(=O)=O)C(=N)N`, the Ki is 205 nM. For the molecule `NCC(=O)NS(=O)(=O)c1ccc(CCO)cc1`, the affinity corresponds to a Ki of 155 nM. The molecule `CNCC(=O)NCCC(=O)Nc1nnc(S(N)(=O)=O)s1` gave a Ki of 9 nM.

The target in the next assay is Carbonic anhydrase 1 (Homo sapiens, UniProt P00915).
Chain of Carbonic anhydrase 1 (P00915 whole entry): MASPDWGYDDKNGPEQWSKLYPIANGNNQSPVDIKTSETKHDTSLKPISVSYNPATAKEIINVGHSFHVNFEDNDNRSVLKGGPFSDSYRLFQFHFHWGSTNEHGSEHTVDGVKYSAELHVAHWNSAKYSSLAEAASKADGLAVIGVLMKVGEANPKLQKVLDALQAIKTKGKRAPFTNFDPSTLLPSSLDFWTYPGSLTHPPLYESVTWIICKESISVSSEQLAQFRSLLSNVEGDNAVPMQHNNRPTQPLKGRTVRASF
Description: Inhibitory activity against human recombinant carbonic anhydrase I (CA1)
Take `NCC(=O)NCC(=O)Nc1cccc(S(N)(=O)=O)c1`: the Ki worked out at 17000 nM. For `CNCC(=O)NS(=O)(=O)c1ccc(CO)cc1`, affinity was put at a Ki of 1500 nM. `CN(CC(=O)Nc1ccc2nc(S(N)(=O)=O)sc2c1)C(=N)N`: the Ki turned out to be 10 nM. The molecule `CN(CC(=O)Nc1ccc(S(=O)(=O)Nc2cccc(S(N)(=O)=O)c2)cc1)C(=N)N` registered a Ki of 45 nM. The same measure, in the same setting: under `NCC(=O)Nc1ccc(S(=O)(=O)Nc2ccc(S(N)(=O)=O)cc2)cc1` stands 62 nM; under `CNCC(=O)Nc1c(S(N)(=O)=O)cc(S(N)(=O)=O)c(Cl)c1Cl`, 520 nM; under `NCC(=O)NS(=O)(=O)c1nc2ccc(OCCO)cc2s1`, 9 nM.

`CNCC(=O)Nc1ccc(S(N)(=O)=O)cc1I` displayed a Ki of 560 nM. The molecule `NCC(=O)Nc1ccc(S(N)(=O)=O)cc1Br` returned a Ki of 600 nM. The molecule `CN(CC(=O)NCCc1ccc(S(N)(=O)=O)cc1)C(=N)N` came in with a Ki of 775 nM. `NCC(=O)NCC(=O)Nc1ccc(S(N)(=O)=O)cc1I` came in with a Ki of 590 nM. The molecule `NCC(=O)Nc1ccccc1S(N)(=O)=O` gave a Ki of 25000 nM. As to `CN(CC(=O)Nc1ccc(S(N)(=O)=O)cc1Br)C(=N)N`, the Ki was determined as 525 nM. On to `NCC(=O)Nc1ccc2nc(S(N)(=O)=O)sc2c1`, for which the Ki turned out to be 17 nM.

The molecule `CNCC(=O)Nc1ccc(S(N)(=O)=O)cc1Cl` came in with a Ki of 510 nM. The molecule `CN(CC(=O)Nc1ccc(S(N)(=O)=O)cc1Cl)C(=N)N` returned a Ki of 510 nM. The molecule `NCC(=O)NCC(=O)Nc1nccc(Nc2ccc(S(N)(=O)=O)cc2)n1` gave a Ki of 60 nM.

Regarding `NCC(=O)Nc1ccc(S(N)(=O)=O)cc1F`, the Ki came out at 540 nM. Turning to `CN(CC(=O)NNc1ccc(S(N)(=O)=O)cc1)C(=N)N`, affinity was put at a Ki of 20800 nM. Regarding `CNCC(=O)NCCc1ccc(S(N)(=O)=O)cc1`, the Ki was determined as 820 nM. As to `CN(CC(=O)NS(=O)(=O)c1nc2ccc(O)cc2s1)C(=N)N`, the inhibition constant (Ki) worked out at 11 nM.

Regarding `NCC(=O)NCC(=O)Nc1ccccc1S(N)(=O)=O`, the affinity, expressed as Ki, was 23500 nM. For `CNCC(=O)NNc1ccc(S(N)(=O)=O)cc1`, the Ki was determined as 22000 nM. Consider `CNCC(=O)NS(=O)(=O)c1nc2ccc(O)cc2s1`, for which affinity was put at a Ki of 11 nM. As for `CN(CC(=O)NS(=O)(=O)c1nc2ccc(OCCO)cc2s1)C(=N)N`, the Ki turned out to be 9 nM. On the same count and under the same terms, under `Cn1nc(S(N)(=O)=O)s/c1=N/C(=O)CNC(=O)CN` stands 280 nM; under `NCC(=O)Nc1cc(Cl)c(S(N)(=O)=O)cc1S(N)(=O)=O`, 360 nM.

In turn, `NCC(=O)NCC(=O)Nc1ccc(S(N)(=O)=O)cc1` came in with a Ki of 15000 nM. On the same count and under the same terms, under `NCC(=O)NCC(=O)Nc1ccc(S(=O)(=O)Nc2cccc(S(N)(=O)=O)c2)cc1` stands 55 nM; under `CN(CC(=O)NS(=O)(=O)c1ccc(CCO)cc1)C(=N)N`, 1000 nM. `NCC(=O)NCC(=O)NS(=O)(=O)c1ccc(CCO)cc1`: the affinity corresponds to a Ki of 1500 nM. For the molecule `Cn1nc(S(N)(=O)=O)s/c1=N\C(=O)CN`, the Ki is 335 nM.

With `CN(CC(=O)Nc1c(S(N)(=O)=O)cc(S(N)(=O)=O)c(Cl)c1Cl)C(=N)N`, affinity was put at a Ki of 525 nM. Still for that read-out and setting: under `CNCC(=O)NS(=O)(=O)c1nc2ccc(OCCO)cc2s1` stands 10 nM.

The molecule `CN(CC(=O)Nc1ccccc1S(N)(=O)=O)C(=N)N` had a Ki of 20300 nM. In turn, `NCC(=O)NS(=O)(=O)c1ccc(CCO)cc1` registered a Ki of 1700 nM.

Take `CNCC(=O)NCCC(=O)Nc1nnc(S(N)(=O)=O)s1`: the Ki is 21 nM.

The values are drawn from ChEMBL document CHEMBL1132382 (J Med Chem, 1999).
